Experimental data from patent US10167262B2, “Herbicidal substituted 3-arylpyrazoles” (FMC CORPORATION, priority 2014, dated 2019).

Tests used:
Assay in all cases: Test E pre-/postemergence greenhouse test, plant response rating 0-100
Format in all cases: in vivo
[1] = system: wild poinsettia (Euphorbia heterophylla); details: Postemergence, scale 0 to 100
In short: (§1)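 Preemergence application to planted silt loam and postemergence application to 2–18 cm seedlings are run simultaneously. Evaluation is visual against controls after 14 to 21 days, scored from 0 (no effect) to 100 (complete control).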

[2] = system: Brazilian crabgrass (Digitaria horizontalis); details: Postemergence, scale 0 to 100
In short: as §1

corn (Zea mays) = details: Postemergence, scale 0 to 100
In short: as §1

soybean (Glycine max) = details: Postemergence, scale 0 to 100
In short: as §1

[3] = system: arrowleaf sida (Sida rhombifolia); details: Postemergence
In short: as §1

[4] = system: dayflower (Virginia (VA) dayflower, Commelina virginica); details: Postemergence, scale 0 to 100
In short: as §1

[5] = system: Italian ryegrass (Lolium multiflorum); details: Postemergence, scale 0 to 100
In short: as §1

[6] = system: hairy beggarticks (Bidens pilosa); details: Postemergence, scale 0 to 100
In short: as §1

[7] = system: palmer pigweed (Amaranthus palmeri); details: Postemergence, scale 0 to 100
In short: as §1

[8] = system: waterhemp (common waterhemp, Amaranthus rudis); details: Postemergence, scale 0 to 100
In short: as §1

[9] = system: sandbur (southern sandbur, Cenchrus echinatus); details: Postemergence, scale 0 to 100
In short: as §1

[10] = system: barnyardgrass (Echinochloa crus-galli); details: Postemergence, scale 0 to 100
In short: as §1

**Q.** `Fc1ccc(NN=C(c2ccccc2)c2c[nH]nc2-c2cc(Cl)cc(Cl)c2)cc1` [Compound 35] was tested. Which “Plant response rating, Poinsettia, Wild” value ([1]; 31 g ai/ha) did it give?
**A.** Its value is 0.

**Q.** And the “Plant response rating, Poinsettia, Wild” value ([1]; 62 g ai/ha)?
**A.** Its value is 0.

**Q.** What about the “Plant response rating, Poinsettia, Wild” value ([1]; 125 g ai/ha) of the same compound?
**A.** Its value is 0.

**Q.** What about the “Plant response rating, Poinsettia, Wild” value ([1]; 250 g ai/ha) of the same compound?
**A.** Its value is 0.

**Q.** What about the “Plant response rating, Poinsettia, Wild” value ([1]; 500 g ai/ha) of the same compound?
**A.** Its value is 0.

**Q.** And the “Plant response rating, Crabgrass, Brazil” value ([2]; 31 g ai/ha)?
**A.** The value was 0.

**Q.** And the “Plant response rating, Crabgrass, Brazil” value ([2]; 62 g ai/ha)?
**A.** Its value is 0.

**Q.** And the “Plant response rating, Crabgrass, Brazil” value ([2]; 125 g ai/ha)?
**A.** The value was 0.

**Q.** And the “Plant response rating, Crabgrass, Brazil” value ([2]; 250 g ai/ha)?
**A.** The value was 0.

**Q.** What about the “Plant response rating, Crabgrass, Brazil” value ([2]; 500 g ai/ha) of the same compound?
**A.** Its value is 10.

**Q.** What about the “Plant response rating, Corn” value (corn (Zea mays); 31 g ai/ha) of the same compound?
**A.** The value was 0.

**Q.** What about the “Plant response rating, Corn” value (corn (Zea mays); 62 g ai/ha) of the same compound?
**A.** Its value is 0.

**Q.** What about the “Plant response rating, Corn” value (corn (Zea mays); 125 g ai/ha) of the same compound?
**A.** Its value is 0.

**Q.** What about the “Plant response rating, Corn” value (corn (Zea mays); 250 g ai/ha) of the same compound?
**A.** The value was 0.

**Q.** What about the “Plant response rating, Corn” value (corn (Zea mays); 500 g ai/ha) of the same compound?
**A.** The value was 0.

**Q.** What about the “Plant response rating, Soybean” value (soybean (Glycine max); 31 g ai/ha) of the same compound?
**A.** The value was 0.

**Q.** And the “Plant response rating, Soybean” value (soybean (Glycine max); 62 g ai/ha)?
**A.** The value was 0.

**Q.** What about the “Plant response rating, Soybean” value (soybean (Glycine max); 125 g ai/ha) of the same compound?
**A.** The value was 0.

**Q.** What about the “Plant response rating, Soybean” value (soybean (Glycine max); 250 g ai/ha) of the same compound?
**A.** Its value is 0.

**Q.** And the “Plant response rating, Soybean” value (soybean (Glycine max); 500 g ai/ha)?
**A.** The value was 0.

**Q.** What about the “Plant response rating, Arrowleaf Sida” value ([3]; 31 g ai/ha, scale 0 to 100) of the same compound?
**A.** The value was 50.

**Q.** What about the “Plant response rating, Arrowleaf Sida” value ([3]; 62 g ai/ha, scale 0 to 100) of the same compound?
**A.** Its value is 60.

**Q.** What about the “Plant response rating, Arrowleaf Sida” value ([3]; 125 g ai/ha, scale 0 to 100) of the same compound?
**A.** The value was 70.

**Q.** What about the “Plant response rating, Arrowleaf Sida” value ([3]; 250 g ai/ha, scale 0 to 100) of the same compound?
**A.** The value was 80.

**Q.** What about the “Plant response rating, Arrowleaf Sida” value ([3]; 500 g ai/ha, scale 0 to 100 (0 no effect, 100 complete control)) of the same compound?
**A.** The value was 90.

**Q.** What about the “Plant response rating, Dayflower, VA” value ([4]; 31 g ai/ha) of the same compound?
**A.** The value was 0.

**Q.** What about the “Plant response rating, Dayflower, VA” value ([4]; 62 g ai/ha) of the same compound?
**A.** Its value is 0.

**Q.** What about the “Plant response rating, Dayflower, VA” value ([4]; 125 g ai/ha) of the same compound?
**A.** Its value is 0.

**Q.** And the “Plant response rating, Dayflower, VA” value ([4]; 250 g ai/ha)?
**A.** The value was 0.

**Q.** What about the “Plant response rating, Dayflower, VA” value ([4]; 500 g ai/ha) of the same compound?
**A.** The value was 0.

**Q.** What about the “Plant response rating, Ryegrass, Italian” value ([5]; 31 g ai/ha) of the same compound?
**A.** Its value is 0.

**Q.** And the “Plant response rating, Ryegrass, Italian” value ([5]; 62 g ai/ha)?
**A.** The value was 0.

**Q.** What about the “Plant response rating, Ryegrass, Italian” value ([5]; 125 g ai/ha) of the same compound?
**A.** The value was 0.

**Q.** What about the “Plant response rating, Ryegrass, Italian” value ([5]; 250 g ai/ha) of the same compound?
**A.** The value was 0.

**Q.** What about the “Plant response rating, Ryegrass, Italian” value ([5]; 500 g ai/ha) of the same compound?
**A.** Its value is 0.

**Q.** And the “Plant response rating, Beggarticks” value ([6]; 31 g ai/ha)?
**A.** Its value is 85.

**Q.** What about the “Plant response rating, Beggarticks” value ([6]; 62 g ai/ha) of the same compound?
**A.** Its value is 98.

**Q.** What about the “Plant response rating, Beggarticks” value ([6]; 125 g ai/ha) of the same compound?
**A.** The value was 98.

**Q.** What about the “Plant response rating, Beggarticks” value ([6]; 250 g ai/ha) of the same compound?
**A.** Its value is 98.

**Q.** What about the “Plant response rating, Beggarticks” value ([6]; 500 g ai/ha) of the same compound?
**A.** The value was 100.

**Q.** What about the “Plant response rating, Pigweed, Palmer” value ([7]; 31 g ai/ha) of the same compound?
**A.** The value was 75.

**Q.** What about the “Plant response rating, Pigweed, Palmer” value ([7]; 62 g ai/ha) of the same compound?
**A.** The value was 80.

**Q.** What about the “Plant response rating, Pigweed, Palmer” value ([7]; 125 g ai/ha) of the same compound?
**A.** Its value is 98.

**Q.** And the “Plant response rating, Pigweed, Palmer” value ([7]; 250 g ai/ha)?
**A.** The value was 100.

**Q.** And the “Plant response rating, Pigweed, Palmer” value ([7]; 500 g ai/ha)?
**A.** Its value is 100.

**Q.** What about the “Plant response rating, Waterhemp” value ([8]; 62 g ai/ha) of the same compound?
**A.** Its value is 85.

**Q.** What about the “Plant response rating, Waterhemp” value ([8]; 125 g ai/ha) of the same compound?
**A.** The value was 95.

**Q.** What about the “Plant response rating, Waterhemp” value ([8]; 250 g ai/ha) of the same compound?
**A.** Its value is 98.

**Q.** And the “Plant response rating, Waterhemp” value ([8]; 500 g ai/ha)?
**A.** The value was 100.

**Q.** What about the “Plant response rating, Sandbur” value ([9]; 31 g ai/ha) of the same compound?
**A.** Its value is 0.

**Q.** What about the “Plant response rating, Sandbur” value ([9]; 62 g ai/ha) of the same compound?
**A.** The value was 0.

**Q.** What about the “Plant response rating, Sandbur” value ([9]; 125 g ai/ha) of the same compound?
**A.** Its value is 0.

**Q.** And the “Plant response rating, Sandbur” value ([9]; 250 g ai/ha)?
**A.** Its value is 0.

**Q.** What about the “Plant response rating, Sandbur” value ([9]; 500 g ai/ha) of the same compound?
**A.** The value was 0.

**Q.** What about the “Plant response rating, Barnyardgrass” value ([10]; 31 g ai/ha) of the same compound?
**A.** Its value is 0.

**Q.** What about the “Plant response rating, Barnyardgrass” value ([10]; 62 g ai/ha) of the same compound?
**A.** Its value is 0.

**Q.** What about the “Plant response rating, Barnyardgrass” value ([10]; 125 g ai/ha) of the same compound?
**A.** Its value is 0.

**Q.** What about the “Plant response rating, Barnyardgrass” value ([10]; 250 g ai/ha) of the same compound?
**A.** Its value is 0.

**Q.** And the “Plant response rating, Barnyardgrass” value ([10]; 500 g ai/ha)?
**A.** The value was 0.
